The values below come from patent US20240285557A1, “PHARMACEUTICAL COMPOSITION COMPRISING LIPASE INHIBITOR FOR TREATMENT OR TREATMENT OF RNA VIRAL INFECTIONS” (priority 2021, published 2024).

Data set [1] is described as follows: MTT half-maximal cytotoxic concentration (CC50). The settings on record: dog.
The test system of data set [2] is Vero E6 cells.
Description: (§1) To determine the half-maximal cytotoxic concentration (CC50) of the lipase inhibitors atglistatin and CAY10499, Vero E6, A549, HRT-18G, MA104, MARC-145, and LLC-PK cells were prepared in monolayers in 96-well plates.
(§2) The cells were treated with the drugs for 24 hours, and the culture media was removed before addition of 200 μL of 3-(4,5-dimethylthiazol-2-yl)-2,5-diphenyl tetrazolium bromide (MTT) solution to each well. The plates were then incubated for 4 hours in a 5% CO2 incubator at 36° C. Subsequently, 150 μL of DMSO solution was added to each well and incubated at 20° C. The optical density (OD) was measured at 570 nm wavelength using an enzyme-linked immunosorbent assay (ELISA) reader.
Data set [3] concerns MDCK cells.
Data set [4] has as its system HRT18G cells.
Description: as §1, §2
Data set [5] relates to MA104 cells.
Description: as §1, §2
Data set [6] relates to MARC cells.
Description: as §1, §2
The test system of data set [7] is LLC-PK cells.
Description: as §1, §2
For data set [8], the system named is A549, Vero E6, MDCK, HRT18G, MA04, MARC, and LLC-PK cells.
Description: as §1, §2
In data set [9] the test system is A549 cells. In words: MTT half-maximal cytotoxic concentration (CC50). The settings on record: drugs for 24 hours.
Description: as §1, §2
Data set [10] has as its system Vero E6 cells. In words: MTT half-maximal cytotoxic concentration (CC50). The conditions noted are these: Vero E6; drugs for 24 hours, MTT.
Description: as §1, §2
The subject of data set [11] is MA104 cells. In words: MTT half-maximal cytotoxic concentration (CC50). The settings on record: MA104; drugs for 24 hours, MTT.
Description: as §1, §2
In data set [12] the test system is MARC cells. The data set is described as follows: MTT half-maximal cytotoxic concentration (CC50). The settings on record: MARC; drugs for 24 hours, MTT.
Description: as §1, §2
A short description of data set [13]: MTT half-maximal cytotoxic concentration (CC50). The conditions noted are these: African green monkey.
Description: as §1, §2
Data set [14] can be described thus: MTT half-maximal cytotoxic concentration (CC50). The conditions noted are these: African green monkey. The source holds these as a separate data set.
Description: as §1, §2

The CC50 is the concentration giving 50% cytotoxicity.

Like-named read-outs stand apart in the source and are kept apart here.

`CN(C)C(=O)Nc1cccc(-c2ccc(N(C)C)cc2)c1` [Atglistatin, 3-(4′-(dimethylamino)-(1,1′-biphenyl)-3-yl)-1,1-dimethylurea] had a CC50 at 24 h in [1] of 269 µM.
For the molecule `COc1nn(-c2ccc(NC(=O)OCc3ccccc3)c(C)c2)c(=O)o1` [CAY10499], the CC50 in data set [2] was 102 µM; in data set [3], 110 µM; in data set [4] it was 104 µM; in data set [5], 107 µM; in data set [6], 101 µM; in data set [7] it was 109 µM. This molecule also had a CC50 in data set [8] of 101 to 110 µM.
Turning to `CCN(CC)C(=O)Nc1cccc(-c2ccc(N(C)C)cc2)c1` [DABPU-DE], the CC50 was 213 µM in data set [9], 222 µM in [10], 209 µM in data set [11] and 216 µM in data set [12].
As for `CCN(C)C(=O)Nc1cccc(-c2ccc(N(C)C)cc2)c1` [DABPU-EM, 3-(4′-(dimethylamino)-(1,1′-biphenyl)-3-yl)-1-ethyl-1-methylurea], the CC50 at 24 h in [13] and in data set [14] was 210 µM each time.
